Data as given in PubChem BioAssay AID1549 (Sanford-Burnham Center for Chemical Genomics, 2009).
Active and inactive are the calls of the source. How the calls were made is not given here.

Biological target: Influenza A virus M2 proton channel (A/TW/4845/1999 H1N1)
Assay: NMR binding screen, influenza A virus M2 proton channel, Kd (AID 1549)
Settings: M2 protein

Structure (SMILES) | Kd
COc1cc2c(cc1O)CC1c3c(cc(O)c(OC)c3-2)CCN1C (stereo not given) | > 4 mM (inactive)
Cc1cc(SCC(=O)Nc2nccs2)nc(=O)[nH]1 | > 4 mM (inactive)
O=C1NC(=O)/C(=C\c2ccco2)S1 | > 4 mM (inactive)
NCc1c[nH]c2ccccc12 | > 4 mM (inactive)
COC(=O)C[C@H]1C(C)(C)C(=O)[C@@H]2CC3=C(CC[C@]4(C)C3=CC(=O)O[C@H]4c3ccoc3)C1(C)C2=O | > 4 mM (inactive)
Cn1c(CSc2nc3ccccc3s2)n[nH]c1=S | > 4 mM (inactive)
O=c1ccc2ccc(O)cc2o1 | > 4 mM (inactive)
N#CCN1C(=O)c2ccccc2S1(=O)=O | > 4 mM (inactive)
CC1=C(/C=C/C(C)=C/C=C/C(C)=C/C=C/C=C(C)/C=C/C=C(C)/C=C/C(=O)[C@]2(C)C[C@@H](O)CC2(C)C)C(C)(C)C[C@H](O)C1 | > 4 mM (inactive)
C=C[C@@](C)(O)CCC1C(=C)C[C@H](OC(C)=O)C2C(C)(C)CCCC12C (stereo not given in full) | > 4 mM (inactive)
Cc1nc(-c2ccc(C(=O)O)s2)cs1 | > 4 mM (inactive)
COC(=O)C[C@@H]1C2(C)C(=O)[C@@H](CC3=C4CC(O)O[C@@H](c5ccoc5)[C@]4(C)CCC32)[C@H](O)C1(C)C (stereo not given in full) | > 4 mM (inactive)
O=c1cnnc(NCc2ccc(F)cc2)[nH]1 | > 4 mM (inactive)
COc1ccc(-c2coc3c(OC)c(OC)cc(O)c3c2=O)cc1 | > 4 mM (inactive)
Cn1c(=O)[nH]c(=O)c2c1ncn2CCN1CCCCC1 | > 4 mM (inactive)
CNS(=O)(=O)c1cc(OC)ccc1OC | > 4 mM (inactive)
O=C(O)C1CCN(C(=O)c2cccs2)CC1 | > 4 mM (inactive)
Cc1nnc(SCc2ccc(F)cc2)s1 | > 4 mM (inactive)
Cc1cc(F)c(F)c(C(=O)NC2CC2)c1Cl | > 4 mM (inactive)
Cc1nc2ccccc2c(=O)n1/N=C/c1ccncc1 | > 4 mM (inactive)
Cn1c(=O)n(CC(=O)Nc2cccnc2)c2ccccc21 | > 4 mM (inactive)
O=C1NC(=O)C(=Cc2cccs2)C(=O)N1 | > 4 mM (inactive)
COc1ccc(NS(=O)(=O)c2ccc(N)cc2)nn1 | > 4 mM (inactive)
O=C1N=C(N2CCOCC2)S/C1=C\c1cccnc1 | > 4 mM (inactive)
Nc1ncnc2c1ncn2C1C[C@H](O)[C@@H](CO)O1 (stereo not given in full) | > 4 mM (inactive)
CC(=O)CC1(O)C(=O)Nc2ccc(Br)cc21 (stereo not given) | > 4 mM (inactive)
CS(=O)(=O)CCCCN=C=S | > 4 mM (inactive)

Structure (SMILES) | Kd
Nc1ccc2[nH]ncc2c1 | > 4 mM (inactive)
NC1=NC(=O)C(Cc2cccc([N+](=O)[O-])c2)S1 (stereo not given) | > 4 mM (inactive)
[O-][n+]1c2ccccc2[n+]([O-])c2cc(O)ccc21 | > 4 mM (inactive)
Cc1ncc(C[n+]2csc3ccccc32)c(N)n1 | > 4 mM (inactive)
NCc1ccc(S(N)(=O)=O)cc1 | > 4 mM (inactive)
O=C(/C=C(\O)c1ccccc1)c1ccccc1O | > 4 mM (inactive)
Nc1ccc(N2CCOCC2)c(Cl)c1 | > 4 mM (inactive)
O=C1CSC(=Nc2cccc(C(F)(F)F)c2)N1 | > 4 mM (inactive)
CC(=O)c1c(O)c(C)c(O)c2c1OC1=CC(=O)C(C(C)=O)C(=O)C12C (stereo not given) | > 4 mM (inactive)
CC(=O)NCS(=O)(=O)c1ccc(C)cc1 | > 4 mM (inactive)
c1ccc2nc3c(nc2c1)CCc1nonc1-3 | > 4 mM (inactive)
COc1ccc2nc(N)sc2n1 | > 4 mM (inactive)
Cc1cc(=O)n2nc(-c3ccccc3)sc2n1 | > 4 mM (inactive)
CC1CN=C(Nc2ccccc2)S1 (stereo not given) | > 4 mM (inactive)
O=c1[nH]c2ccc(S(=O)(=O)NC3CC3)cc2[nH]1 | > 4 mM (inactive)
CNC(=S)N1CCN=C1Nc1nc(C)cc(C)n1 | > 4 mM (inactive)
O=C(NC1=NCCS1)c1ccc([N+](=O)[O-])cc1Cl | > 4 mM (inactive)
O=C(NCC1CCNCC1)c1ccncc1 | > 4 mM (inactive)
COCC(=O)Nc1cccc(Br)c1 | > 4 mM (inactive)
CCC[C@H]1CC2=C(C[C@@H](CC)CC3=C1C(=O)OC3=O)C(=O)OC2=O | > 4 mM (inactive)
Cc1ccccc1N1C(=O)CC(=O)NC1=O | > 4 mM (inactive)
Cc1ccc(-n2ncc(C#N)c2/N=C/N(C)C)cc1 | > 4 mM (inactive)
Cc1ccc(SCC(=O)N2CCOCC2)cc1 | > 4 mM (inactive)
CC(=O)Oc1cc(-c2coc3cc(OC(C)=O)c(OC(C)=O)c(OC(C)=O)c3c2=O)cc(OC(C)=O)c1OC(C)=O | > 4 mM (inactive)
N#Cc1cc2ccccc2nc1N | > 4 mM (inactive)
O=C(/C=C1\SC(=O)NC1=O)NCc1ccccc1 | > 4 mM (inactive)
CC(C)(C)C(=O)Nc1ncc(C(F)(F)F)cc1Cl | > 4 mM (inactive)

Structure (SMILES) | Kd
Cc1noc(C)c1CSc1nc2ccccc2[nH]1 | > 4 mM (inactive)
CSc1ccc(/C=N/n2c(C)nnc2C)cc1 | > 4 mM (inactive)
O=C(Nc1ccon1)c1cccc(C(F)(F)F)c1 | > 4 mM (inactive)
COc1ccc(C)cc1S(=O)(=O)NC1CCCC1 | > 4 mM (inactive)
CCCn1c(C)cc(=O)[nH]c1=O | > 4 mM (inactive)
Cc1cc(-c2ccc(Cl)cc2)n2nc(N)nc2n1 | > 4 mM (inactive)
CC(C)(C(N)=O)/[N+]([O-])=C\c1ccccc1 | > 4 mM (inactive)
COC(=O)/C(=C1\OC(=O)C(c2ccccc2)C1=O)c1ccccc1 (stereo not given) | > 4 mM (inactive)
COC(=O)c1c(OC)cc2c(c1C)Oc1c(Cl)c(OC(C)=O)c(Cl)c(C)c1C(=O)O2 | > 4 mM (inactive)
CNC(=S)Nc1cccc(C(=O)O)c1 | > 4 mM (inactive)
O=C1C[C@@H](c2ccc(O)cc2)Oc2cc(O)cc(O)c21 | > 4 mM (inactive)
O=c1cc(-c2ccc(O)cc2)[nH]c(=S)[nH]1 | > 4 mM (inactive)
COc1cccc(C(=O)Nc2c(C)n[nH]c2C)c1 | > 4 mM (inactive)
c1ccc(CCc2nc(-c3ccncc3)no2)cc1 | > 4 mM (inactive)
CCOc1ccc(C(=O)c2ccc(OC)c(O)c2O)cc1 | > 4 mM (inactive)
O=C(O)C1CC2CC1CCC2O (stereo not given) | > 4 mM (inactive)
CC(=O)NC1=C(N(C)C)C(=O)c2ccccc2C1=O | > 4 mM (inactive)
Cc1ccc(C)n1CCN1CCNCC1 | > 4 mM (inactive)
Cc1ccc(Nc2nc(N)nc(CC#N)n2)cc1 | > 4 mM (inactive)
CC1(C)O[C@H]2[C@H](O)C[C@](O)(C(N)=O)C[C@H]2O1 | > 4 mM (inactive)
C=C1C([C@]2(C)C(CC(=O)OC)[C@@](C)(COC(C)=O)OC(=O)C[C@@H]2OC(C)=O)[C@@H](OC=O)[C@H](OC(=O)C(O)C(C)CC)[C@@]2(C)[C@H](c3ccoc3)CC(=O)C12O (stereo not given in full) | > 4 mM (inactive)
O=C(NCO)c1ccc([N+](=O)[O-])cc1 | > 4 mM (inactive)
O=S1(=O)CCC(NC(=S)N2CCCCC2)C1 (stereo not given) | > 4 mM (inactive)
C=CC(C1=CC(=O)C(OC)=CC1=O)c1ccccc1 (stereo not given) | > 4 mM (inactive)
COc1ccc2cc1Oc1ccc(cc1)C[C@H]1c3cc(c(OC)cc3CCN1C)Oc1c(OC)c(OC)cc3c1[C@H](C2)N(C)CC3 | > 4 mM (inactive)
Cn1nccc1N | > 4 mM (inactive)
